Measurements published in the NIST ThermoML archive (doi:10.1016/j.jct.2015.04.003).
± gives the expanded uncertainty stated by the source.

Experiment: Boiling temperature at pressure P
Details: 101.33 kPa; Liquid; Ebulliometric method (Recirculating still)

Boiling temperature at pressure P [°C]	Structure (SMILES)
205.10 ± 0.05	COc1ccccc1O [2-methoxyphenol]
153.54 ± 0.05	COc1ccccc1 [anisole]

Structure (SMILES)	Boiling temperature at pressure P [°C]
CCCCOC(C)=O [butyl ethanoate]	125.92 ± 0.05
